Values after ≈ are worked out from the molar mass of the structure shown.
test system: not listed separately; assay: Reversal of multidrug resistance in human 2780AD cells assessed as increase in vincristine accumulation relative to verapamil; format: functional, A2780 ADR; parameters: concentration or dose not given beside the values

Point of comparison: C=C1[C@@H](OC(=O)c2ccccc2)CC[C@@]2(C)[C@@H](OC(C)=O)[C@H](OC(C)=O)C3=C(C)[C@@H](O)C[C@@H]([C@@H](OC(C)=O)[C@H]12)C3(C)C, Activity 88%. Against it:
- C=C1[C@@H](OC(=O)CCc2ccccc2)CC[C@@]2(C)[C@@H](OC(C)=O)[C@H](OC(C)=O)C3=C(C)C(=O)C[C@@H]([C@@H](OC(C)=O)[C@H]12)C3(C)C — higher, 227%
- CC(=O)O[C@@H]1[C@@H]2CC(=O)C(C)=C([C@@H](OC(C)=O)[C@H](OC(C)=O)[C@]3(C)CC[C@H](O)[C@]4(CO4)[C@@H]13)C2(C)C — lower, 28%
- CC[Si](CC)(CC)O[C@H]1CC[C@@]2(C)[C@@H](OC(C)=O)[C@H](OC(C)=O)C3=C(C)C(=O)C[C@@H]([C@@H](OC(C)=O)[C@@H]2[C@@]12CO2)C3(C)C — higher, 101%
- C=C1[C@@H](OCOCc2ccccc2)CC[C@@]2(C)[C@@H](OC(C)=O)[C@H](OC(C)=O)C3=C(C)C(=O)C[C@@H]([C@@H](OC(C)=O)[C@H]12)C3(C)C — higher, 150%
- C=C1[C@@H](O)CC[C@@]2(C)[C@@H](OC(C)=O)[C@H](OC(C)=O)C3=C(C)[C@@H](O)C[C@@H]([C@@H](OC(C)=O)[C@H]12)C3(C)C — lower, 28%
- C=C1[C@@H](OC(=O)/C=C/c2ccccc2)CC[C@@]2(C)[C@@H](OC(=O)/C=C/c3ccccc3)[C@H](OC(=O)/C=C/c3ccccc3)C3=C(C)C(=O)C[C@@H]([C@@H](OC(C)=O)[C@H]12)C3(C)C — lower, 28%
- C=C1[C@@H](OC(=O)/C=C/c2ccccc2)CC[C@@]2(C)[C@@H](OC(=O)c3ccccc3)[C@H](OC(=O)c3ccccc3)C3=C(C)C(=O)C[C@@H]([C@@H](OC(C)=O)[C@H]12)C3(C)C — lower, 28%
- C=C1[C@@H](O)CC[C@@]2(C)[C@@H](OC(C)=O)[C@H](OC(C)=O)C3=C(C)[C@@H](OC(=O)c4ccccc4)C[C@@H]([C@@H](OC(C)=O)[C@H]12)C3(C)C — lower, 87%
- C=C1[C@@H](O)CC[C@@]2(C)[C@@H](OC(C)=O)[C@H](OC(C)=O)C3=C(C)[C@@H](OC(=O)/C=C/c4ccccc4)C[C@@H]([C@@H](OC(C)=O)[C@H]12)C3(C)C — higher, 95%
- C=C1[C@@H](O)CC[C@@]2(C)[C@@H](OC(C)=O)[C@H](OC(C)=O)C3=C(C)C(=O)C[C@@H]([C@@H](OC(=O)/C=C/c4ccccc4)[C@H]12)C3(C)C — higher, 98%
- C=C1[C@@H](O[Si](CC)(CC)CC)CC[C@@]2(C)[C@@H](OC(C)=O)[C@H](OC(C)=O)C3=C(C)C(=O)C[C@@H]([C@@H](OC(C)=O)[C@H]12)C3(C)C — higher, 91%
- C=C1[C@@H](OC(=O)c2ccccc2)CC[C@@]2(C)[C@@H](OC(C)=O)[C@H](OC(C)=O)C3=C(C)C(=O)C[C@@H]([C@@H](OC(C)=O)[C@H]12)C3(C)C — lower, 87%
- C=C1[C@@H](OC(=O)c2ccccc2)CC[C@@]2(C)[C@@H](OC(=O)c3ccccc3)[C@H](OC(=O)c3ccccc3)C3=C(C)C(=O)C[C@@H]([C@@H](OC(C)=O)[C@H]12)C3(C)C — lower, 28%
- C=C1[C@@H](O)CC[C@@]2(C)[C@@H](OC(C)=O)[C@H](OC(C)=O)C3=C(C)[C@H](O)C[C@@H]([C@@H](OC(C)=O)[C@H]12)C3(C)C — lower, 28%
- CC[Si](CC)(CC)O[C@H]1CC[C@@]2(C)[C@@H](OC(C)=O)[C@H](OC(C)=O)C3=C(C)C(=O)C[C@@H]([C@@H](OC(C)=O)[C@@H]2[C@]12CO2)C3(C)C — higher, 102%
- CC(=O)O[C@@H]1[C@@H]2CC(=O)C(C)=C([C@@H](OC(C)=O)[C@H](OC(C)=O)[C@]3(C)CC[C@H](OC(=O)/C=C/c4ccccc4)[C@@]4(CO4)[C@@H]13)C2(C)C — higher, 139%
- C=C1[C@@H](OC(=O)/C=C/c2ccccc2)CC[C@@]2(C)[C@@H](OC(=O)/C=C/c3ccccc3)[C@H](OC(=O)/C=C/c3ccccc3)C3=C(C)C(=O)C[C@@H]([C@@H](OC(=O)/C=C/c4ccccc4)[C@H]12)C3(C)C — lower, 28%
- CC(=O)O[C@@H]1[C@@H]2CC(=O)C(C)=C([C@@H](OC(C)=O)[C@H](OC(C)=O)[C@]3(C)CC[C@H](O)[C@@]4(CO4)[C@@H]13)C2(C)C — lower, 28%
- C=C1[C@@H](OC(=O)C[C@H](c2ccccc2)N(C)C)C[C@H](OC(C)=O)[C@]2(C)[C@@H]1C[C@@H]1C[C@H](OC(C)=O)C(C)=C([C@@H](OC(C)=O)[C@@H]2OC(C)=O)C1(C)C — higher, 114%
- C=C1[C@@H](OC(=O)/C=C/c2ccccc2)CC[C@@]2(C)[C@@H](OC(C)=O)[C@H](OC(C)=O)C3=C(C)[C@@H](OC(=O)/C=C/c4ccccc4)C[C@@H]([C@@H](OC(C)=O)[C@H]12)C3(C)C — lower, 28%
- C=C1[C@@H](OC(=O)C[C@H](c2ccccc2)N(C)C)CC[C@]2(C)[C@@H]1C[C@@H]1C[C@H](OC(C)=O)C(C)=C([C@@H](OC(C)=O)[C@@H]2OC(C)=O)C1(C)C — higher, 119%
- C=C1[C@@H](OC(=O)c2ccccc2)CC[C@@]2(C)[C@@H](OC(C)=O)[C@H](OC(C)=O)[C@@]34[C@H](C)C(=O)C[C@@H]([C@@H](OC(C)=O)[C@@]132)C4(C)C — higher, 125%
- C=C1[C@@H](OC(=O)/C=C/c2ccccc2)CC[C@@]2(C)[C@H]3OC(C)(C)O[C@@H]3C3=C(C)C(=O)C[C@@H]([C@@H](OC(=O)c4ccccc4)[C@H]12)C3(C)C — lower, 28%
- C=C1[C@@H](OC(=O)/C=C/c2ccccc2)CC[C@@]2(C)[C@H]3OC(C)(C)O[C@@H]3C3=C(C)C(=O)C[C@@H]([C@@H](OC(=O)/C=C/c4ccccc4)[C@H]12)C3(C)C — lower, 28%
- C=C1[C@@H](OC(=O)/C=C/c2ccccc2)C[C@H](OC(C)=O)[C@]2(C)[C@@H]1C[C@@H]1C[C@H](OC(C)=O)C(C)=C([C@@H](OC(C)=O)[C@@H]2OC(C)=O)C1(C)C — higher, 108%
- C=C1[C@@H](OC(=O)/C=C/c2ccccc2)C[C@H](OC(C)=O)[C@]2(C)[C@@H]1C[C@@H]1C[C@H](O)C(C)=C([C@@H](OC(C)=O)[C@@H]2OC(C)=O)C1(C)C [TAXEZOPIDINE H] — higher, 106%
- C=C1[C@@H](OC(=O)C[C@H](c2ccccc2)N(C)C)CC[C@@]2(C)[C@@H](OC(C)=O)[C@H](OC(C)=O)C3=C(C)C(=O)C[C@@H]([C@@H](OC(C)=O)[C@H]12)C3(C)C [TAXINE II] — higher, 95%
- CC(=O)O[C@H]1C[C@H]2[C@@H](OC(C)=O)/C=C3\C[C@](C)(C(=O)[C@H](O)C(=C1C)C2(C)C)[C@@H](OC(C)=O)C[C@@H]3OC(=O)/C=C/c1ccccc1 [TAXUSPINE B] — higher, 96%
- C=C1[C@@H](OC(=O)/C=C/c2ccccc2)CC[C@@]2(C)[C@@H](OC(C)=O)[C@H](OC(C)=O)[C@@]34[C@H](C)C(=O)C[C@@H]([C@@H](OC(C)=O)[C@@]132)C4(C)C [TAXUSPINE C] — higher, 104%
- C=C1[C@@H](OC(=O)/C=C/c2ccccc2)C[C@H](OC(C)=O)[C@]2(C)[C@@H]1C[C@]1(C(C)(C)O)C[C@H](OC(C)=O)C(C)=C1[C@@H](OC(C)=O)[C@@H]2OC(C)=O [TAXUSPINE J] — higher, 114%
- CC(=O)OC/C1=C\[C@H](OC(C)=O)[C@@H]2C[C@H](OC(C)=O)C(C)=C([C@@H](O)/C(OC(C)=O)=C(\C)[C@@H](OC(C)=O)C[C@@H]1OC(=O)/C=C/c1ccccc1)C2(C)C [TAXUSPINE X] — higher, 105%
- C=C1[C@@H](OC(=O)C[C@H](c2ccccc2)N(C)C)CC[C@@]2(C)[C@@H](OC(C)=O)[C@H](OC(C)=O)C3=C(C)[C@@H](OC(C)=O)C[C@@H]([C@@H](O)[C@H]12)C3(C)C [TAXUSPINE Z] — higher, 106%

test system: KB; assay: Cytotoxicity against human KB cells; format: functional, cell-based

Point of comparison: CC(=O)O[C@@]12CO[C@@H]1C[C@@H](O)[C@@]1(C)C(=O)[C@H](O)C3=C(C)[C@@H](OC(=O)[C@H](O)[C@@H](NC(=O)c4ccccc4)c4ccccc4)C[C@@](O)([C@@H](OC(=O)c4ccccc4)[C@H]21)C3(C)C, IC50 1.5 ng/mL (≈ 1.85 nM). Against it:
- C=C1[C@@H](O)CC[C@@]2(C)[C@@H](OC(C)=O)[C@H](OC(C)=O)C3=C(C)C(=O)C[C@@](O)([C@@H](OC(C)=O)[C@H]12)C3(C)C — 53-fold higher, 80 ng/mL (≈ 162 nM)
- CC(=O)O[C@@]12CO[C@@H]1C[C@H](O)[C@@]1(C)C(=O)[C@H](O)C3=C(C)[C@@H](OC(=O)[C@H](O)[C@@H](NC(=O)c4ccccc4)c4ccccc4)C[C@@](O)([C@@H](OC(=O)c4ccccc4)[C@H]21)C3(C)C — the same, 1.5 ng/mL (≈ 1.85 nM)
- C/C=C(\C)C(=O)N[C@@H](c1ccccc1)[C@@H](O)C(=O)O[C@H]1C[C@@]2(O)[C@@H](OC(=O)c3ccccc3)[C@@H]3[C@]4(OC(C)=O)CO[C@@H]4C[C@H](O)[C@@]3(C)C(=O)[C@H](O)C(=C1C)C2(C)C — the same, 1.5 ng/mL (≈ 1.9 nM)
- CC(=O)O[C@H]1C(=O)[C@]2(C)[C@H](O)C[C@H]3OC[C@@]3(OC(C)=O)[C@H]2[C@H](OC(=O)c2ccccc2)[C@]2(O)C[C@H](OC(=O)[C@H](O)[C@@H](NC(=O)c3ccccc3)c3ccccc3)C(C)=C1C2(C)C — the same, 1.5 ng/mL (≈ 1.76 nM)
- CCCCCC(=O)N[C@@H](c1ccccc1)[C@@H](O)C(=O)O[C@H]1C[C@@]2(O)[C@@H](OC(=O)c3ccccc3)[C@@H]3[C@]4(OC(C)=O)CO[C@@H]4C[C@H](O)[C@@]3(C)C(=O)[C@H](O)C(=C1C)C2(C)C [10-DEACETYLTAXAYUNNANINE A] — the same, 1.5 ng/mL (≈ 1.86 nM)
- C=C1[C@H]2C[C@]3(C(C)(C)O)C[C@H](O)C(C)=C3[C@@H](OC(=O)c3ccccc3)[C@H](OC(C)=O)[C@]2(C)[C@@H](OC(C)=O)C[C@@H]1O [BREVIFOLIOL] — 53-fold higher, 80 ng/mL (≈ 144 nM)
- C/C=C(\C)C(=O)N[C@@H](c1ccccc1)[C@@H](O)C(=O)O[C@H]1C[C@@]2(O)[C@@H](OC(=O)c3ccccc3)[C@@H]3[C@]4(OC(C)=O)CO[C@@H]4C[C@H](O)[C@@]3(C)C(=O)[C@H](OC(C)=O)C(=C1C)C2(C)C [CEPHALOMANNINE] — the same, 1.5 ng/mL (≈ 1.8 nM)
- CC(=O)O[C@H]1C(=O)[C@@]2(C)[C@H]([C@H](OC(=O)c3ccccc3)[C@]3(O)C[C@H](OC(=O)[C@H](O)[C@@H](NC(=O)c4ccccc4)c4ccccc4)C(C)=C1C3(C)C)[C@]1(OC(C)=O)CO[C@@H]1C[C@@H]2O [PACLITAXEL] — the same, 1.5 ng/mL (≈ 1.76 nM)
- C=C1[C@@H](OC(=O)/C=C/c2ccccc2)C[C@H](OC(C)=O)[C@@]2(C)[C@@H](OC(C)=O)[C@H](OC(C)=O)[C@]3(O)[C@@]4(C)CO[C@]3(C)C(=O)C[C@H]4[C@@H](OC(C)=O)[C@H]12 [TAXAGIFINE] — 53-fold higher, 80 ng/mL (≈ 115 nM)
